From patent US20110104159A1, “COMPOSITIONS AND METHODS FOR TREATING, CONTROLLING, REDUCING, AMELIORATING, OR PREVENTING ALLERGY” (priority 2006, published 2011)
Where “and” joins values, the source holds several entries; their conditions need not be identical. Equal values may be shown once.

Experiments:
[1] = test system: rabbit paracentesis model; assay: Pupillary diameter measurement, rabbit paracentesis model; type: in vivo; settings: 0.5% topical, individual eye
Experimental: (§1) Each rabbit was placed in a restraint device and tagged with the alphanumeric code. The formulations were instilled (50 μl) into the conjunctival sac of both eyes 180, 120, 90 and 30 min before the first paracentesis; then 15, 30, 90 min after the first paracentesis. To perform the first paracentesis the animals were anaesthetized by intravenous injection of 5 mg/kg Zoletil® (Virbac; 2.5 mg/kg tiletamine HCl and 2.5 mg/kg zolazepam HCl) and one drop of local anesthetic (Novesina®, Novartis) was administered to the eye. Anterior chamber paracentesis was performed with a 26 G needle attached to a tuberculin syringe; the needle was introduced into the anterior chamber through the cornea, taking care not to damage the tissues. Two hours after the first paracentesis, the animals were sacrificed with 0.4 ml Tanax® (Intervet International B.V.) and the second paracentesis was performed. About 100 μl of aqueous humor were removed at the second paracentesis. Aqueous humor was immediately split in four aliquots and stored at −80° C. until analysis. Then both eyes were enucleated and the iris-ciliary body was carefully excised, placed in polypropylene tubes, and stored at −80° C. until analysis.
The pupillary diameter of both eyes was measured with a Castroviejo caliper 180 min and 5 min before the first paracentesis and 5 min before the second paracentesis.

[2] = test system: rabbit paracentesis model; assay: Clinical evaluation by slit lamp (clinical score), rabbit paracentesis model; type: in vivo; set-up: key to Clinical Score −180 min / Clinical Score −5 min / Clinical Score +115 min: 0: normal; 1: discrete dilatation of iris and conjunctival vessels; 2: moderate dilatation of iris and conjunctival vessels; 3: intense iridal hyperemia with flare in the anterior chamber; 4: intense iridal hyperemia with flare in the anterior chamber and presence of fibrinous exudates; settings: 0.5% topical
PGE2 = assay: Prostaglandin E2 (PGE2) measurement in aqueous humor; type: in vivo, Rabbit; settings: 0.5% topical
Experimental: as §1
For the quantitative determination of PGE2 in the aqueous humor we used the PGE2 Immunoassay kit (R&D Systems; Cat. No. KGE004; Lot. No. 240010). Eleven microliters or 16 μl of aqueous humor were diluted to 110 μl or 160 μl with the calibrator diluent solution provided with the kit. One hundred microliters of samples and of standards were load into a 96-well plate and recorded in a plate layout. Samples were treated following the assay procedure described in the kit. A microplate reader (GDV, Italy; model DV 990 B/V6) set at 450 nm (wavelength correction at 540 nm) was used for making the calibration and analyzing the samples.

[3] = test system: protein concentration in the aqueous humor; assay: Protein measurement in aqueous humor; type: in vivo, Rabbit; settings: 0.5% topical
Experimental: as §1
For protein concentration determination in the aqueous humor we used the Protein Quantification Kit (Fluka; Cat. No. 77371; Lot. No. 1303129). Five microliters of aqueous humor were diluted to 100 μl with water. Twenty microliters of samples and of standards were load into a 96-well plate and recorded in a plate layout. Samples were treated following the assay procedure described in the kit. A microplate reader (GDV, Italy; model DV 990 B/V6) set at 670 nm was used for making the calibration and analyzing the samples.

leukocytes (PMN) = assay: Leukocytes (PMN) measurement in aqueous humor; type: in vivo, Rabbit; settings: 0.5% topical
Experimental: as §1
For the determination of the number of leukocytes we used a haemocytometer (Improved Neubauer Chamber; Brigth-line, Hausser Scientific) and a Polyvar 2 microscope (Reichert-Jung).

MPO = assay: Myeloperoxidase (MPO) activity in iris-ciliary body; type: in vivo, Rabbit
Experimental: 2.3.2.1 Phosphate Buffer (50 mM; pH=6)
3.9 g of NaH2PO4 2H2O were dissolved in a volumetric flask to 500 ml with water. The pH was adjusted to pH=6 with 3N NaOH.
0.5 g of hexa-decyl-trimethyl-ammonium bromide was dissolved in 100 ml phosphate buffer.
The solution was prepared freshly. Ten microliters of H2O2 (30 wt. %) were diluted to 1 ml with water (solution A). 7.5 mg o-dianisidine 2HCl were dissolved in 45 ml of phosphate buffer and 75 μl of solution A were added.
as §1
The activity of MPO was measured as previously described by Williams et al. The iris-ciliary bodies were carefully dried, weighed and immersed in 1 ml of hexa-decyl-trimethyl-ammonium bromide solution. Then, the samples were sonicated for 10 sec on ice by a ultrasound homogenizer (HD 2070, Bandelin electronic), freeze-thawed three times, sonicated for 10 sec and centrifuged at 14,000 g for 10 min to remove cellular debris. An aliquot of the supernatant (40-200 μl) was diluted to 3 ml with the o-dianisidine 2HCl/H2O2 solution. The change in absorbance at 460 nm was continuously monitored for 5 min by a spectrophotometer (UV/Vis Spectrometer Lambda EZ 201; Perkin Elmer). The slope of the line (Δ/min) was determined for each sample and used to calculate the number of units of MPO in the tissue as follows:
where ε=11.3 mM^−1. Values were expressed as units of MPO/g of tissue.

EoL-1 cells = assay: EoL-1 cell apoptosis (annexin V/PI flow cytometry); type: cell-based, human; settings: 10 μM co-incubated
Experimental: EoL-1 cells were grown in RPMI-1640+L-glutamine medium (containing 10% FBS) and kept at 37° C. in a 5% CO2 humidified atmosphere. Before each experiment, the cells were stabilized in serum-depleted media (0.1% FBS) for 24 h before treatments.

[4] = test system: peripheral human blood eosinophils; assay: Spontaneous eosinophil apoptosis (annexin V/PI flow cytometry); settings: 10 μM co-incubated
Experimental: To assess glucocorticoid-induced apoptosis, cells were double-stained with annexin V-Fluos and propidium iodide (PI). Annexin V-Fluos was used according to the manufacturer's instructions.
The suspension was incubated at room temperature for 10 min and analyzed in the BD FACS Canto II flow cytometry system (Becton, Dickinson and Company, New Jersey, USA). Eosinophils and EoL-1 cells were gated on the basis of their forward and side light scatter, with cell debris excluded from analysis. Apoptotic cells were defined as annexin V^+/PI^− cells. A two-way dot plot was prepared to verify the percentage of apoptotic cells. Annexin V^−/PI^− cells were used as control and annexin V^+/PI^+ cells were considered necrotic.
All data are expressed as mean±S.E.M. for the number of experiments indicated. Statistical comparisons were made by ANOVA and post-hoc Newman-Keuls test with differences of P<0.05 considered significant.

CCOC(=O)O[C@]1(C(=O)OCCl)CC[C@H]2[C@@H]3CCC4=CC(=O)C=C[C@]4(C)[C@H]3[C@@H](O)C[C@@]21C [LE, loteprednol etabonate, reference compound]
Pupillary diameter T2: −5 min ([1]; 5 min before first paracentesis): 6.0 mm (3×) and 6.5 mm (5×)
Pupillary diameter T3: +115 min ([1]; 5 min before second paracentesis): 4.5 mm and 5.0 mm (2×) and 5.5 mm (2×) and 6.0 mm (3×)
Pupillary diameter Δ(T3 − T1) ([1]; +115 min minus −180 min): −1.5 mm (2×) and −1.0 mm (3×) and 0.0 mm and −0.5 mm (2×)
Pupillary diameter T1: −180 min ([1]; basal): 6.0 mm (3×) and 6.5 mm (5×)
Clinical Score −5 min ([2]; 5 min before first paracentesis, individual eye, scale 0-4): 0
Clinical Score +115 min ([2]; 5 min before second paracentesis, individual eye, scale 0-4): 2 (2×) and 1 (6×)
Percentage of eyes with clinical score 1 ([2]; +115 min, 8 eyes): 75%
Percentage of eyes with clinical score 2 ([2]; +115 min, 8 eyes): 25%
Clinical Score −180 min ([2]; basal, individual eye, scale 0-4): 0
Clinical score, statistical comparison with CTR ([2]; p<0.05): significant difference
Percentage of eyes with clinical score 0 ([2]; −5 min, 8 eyes): 100%
Percentage of eyes with clinical score 0 ([2]; −180 min, 8 eyes): 100%
PGE2 in aqueous humor at the second paracentesis, Mean (PGE2; group mean): 0.672 ng/mL
PGE2 in aqueous humor at the second paracentesis (PGE2; individual eye sample): ^2N/D and 0.23 ng/ml and 0.68 ng/ml and 1.10 ng/ml
PGE2 in aqueous humor, statistical comparison with CTR (PGE2; p<0.05): statistically significant versus CTR
Protein in aqueous humor at the second paracentesis, Mean ([3]; group mean): 33.905 mg/mL
Protein in aqueous humor at the second paracentesis ([3]; individual eye sample): 36.14 mg/mL and 39.10 mg/mL and 34.69 mg/mL and 26.10 mg/mL and 26.30 mg/mL and 28.16 mg/mL and 40.90 mg/mL and 39.85 mg/mL
PMN in aqueous humor at the second paracentesis, Mean (leukocytes (PMN); group mean): 28.333 number/μl
PMN in aqueous humor at the second paracentesis (leukocytes (PMN); individual eye sample): 40 number/μl (2×) and 20 number/μl (3×) and 30 number/μl
MPO activity in iris-ciliary body, statistical comparison with CTR (MPO; 0.5% topical, p<0.001): statistical significance
Mean MPO Unit/g (MPO activity in iris-ciliary body samples) (MPO; 0.5% treatment, group mean, after the second paracentesis): 0.661 Unit/g
MPO Unit/g (raw data of MPO activity in iris-ciliary body samples) (MPO; 0.5% treatment, individual eyes (DX/SX) of rabbits, samples collected after the second paracentesis): 0.30 Unit/g and 0.51 Unit/g and 0.81 Unit/g and 0.60 Unit/g and 0.73 Unit/g and 1.01 Unit/g

CC#C[C@]1(O)CC[C@H]2[C@@H]3CCC4=CC(=O)CCC4=C3[C@@H](c3ccc(N(C)C)cc3)C[C@@]21C [mifepristone, reference compound]
Effect on apoptosis induced by 5000 nM BOL-303242-X or dexamethasone in EoL-1 cells (EoL-1 cells): prevented apoptosis
Effect on apoptosis induced by 5000 nM BOL-303242-X or dexamethasone in human eosinophils [4]: prevented apoptosis
